Where two headings read alike, the source gives them in different places.
Experiments:
PDE7A1 = PDE7A1 (Homo sapiens (Human), UniProt Q13946); assay: PDE7 inhibition, commercial phosphodiesterase activity kit ([3H]cAMP, SPA); assay type: biochemical
Protocol: Measurement of PDE7 inhibition was carried out using a commercial phosphodiesterase activity measurement kit.
Some of the compounds of the present invention (including those synthesised in Example 1) were evaluated. For this purpose, said compounds were incubated (in a range of concentrations from 0.1 nM to 100 μM) in the presence of 0.02 U/well of PDE7A1 and 0.05 μCi of [^3H] cAMP, for 20 minutes at 30° C. in the assay buffer supplied with the kit (total volume per well=100 μL). Once this time had elapsed, 50 μL of a 20 mg/mL suspension of SPA glass silicate microspheres were added and kept in agitation at ambient temperature for 60 minutes. After allowing the plate to rest for 20 minutes, the radioactivity was tested in a scintillation detector. All the assays included two points in the absence of PDE7A1 (blank/negative control) and two points with PDE7A1 in the absence of inhibitors (positive control).
The data were adjusted with a software program using non-linear adjustment.

in vitro = conditions: PAMPA, pH 7.4
Protocol: (§1) PDVF membrane filters were used for filtering the samples (diameter 30 mm, pore size 0.45 μm).
(§2) Ten reference compounds were selected whose passage across the blood-brain barrier is known and in the public domain, in order to validate the experiment. […] The solutions were filtered. Afterwards, 180 μL of a solution of PBS/ethanol (70/30) were added to each well of the acceptor plate. The donor plate was impregnated with 4 μL of a solution of porcine brain lipid dissolved in dodecane (20 mg mL-1).
(§3) After 5 minutes, 180 μL of solution of each compound were added to this plate.
(§4) The donor plate was then placed on the acceptor plate, forming a kind of sandwich, and left to incubate for 2 h and 30 min at 25° C. The compounds passed by passive transport from the donor plate, through the porcine brain lipid, to the acceptor plate. After 2 h and 30 min, the donor plate was carefully removed.
(§5) The concentration and absorbance, both of the commercial compounds and of the compounds of the present invention that were evaluated in the acceptor and donor plates, were determined using a UV absorbance reader. Each sample was analysed at different wavelengths (between 3 and 5 absorbance minima and maxima were chosen for each compound at wavelength valves of between 220 nm and 450 nm), in 3 wells and in a minimum of 2 independent experiments. […] The measurements were carried out on the acceptor plate.

[1] = Pharmacokinetic studies in mice: exposure in plasma and brain; conditions: for Kp / Tmax / Cmax: C57BL/6, mouse; for Kp: brain; for Tmax: plasma and brain; for Cmax: plasma; for levels in plasma and brain 2 hours after administration (elimination): intraperitoneal or oral administration
Protocol: (§6) After the blood extraction, the mice of each group were sacrificed by asphyxia with CO2, in order to obtain the brain. The brains were washed in a cold solution, dried in filter paper, weighed and placed in polypropylene tubes. The brains were homogenised with a buffered solution of phosphate pH 7.4, so that the total volume of the homogenate was three times the weight of the brain. The samples were stored at −70° C. until their analysis.
(§7) The extraction procedure for the plasma/brain homogenate or plasma calibration standard/doped brain samples was the same: 100 μL of the internal standard (imipramine, 500 ng/mL) were added, prepared in acetonitrile, to 25 μL of sample (plasma/brain) or doped calibration standard, and agitated with a vortex agitator for 5 minutes. As a blank (negative control), only acetonitrile was added. The samples were centrifugated for 10 min at 15000 rpm (20600 g) at 4° C. 100 μL of each supernatant were transferred to 96-well plates for its analysis by liquid chromatography-tandem mass spectrometry (LC-MS/MS). The calibration standards were prepared by doping 10 μL of analyte (compound to be studied, 1 mg/mL) in 190 μL of virgin plasma/brain homogenate (and subsequent serial dilutions).
(§8) The pharmacokinetic study was performed based on the time-concentration data obtained for the plasma and brain, by means of non-compartmental analysis using version 5.2 of WinNonlin®. The areas under the concentration-time curve (AUClast and AUCinf) were calculated using the linear trapezoidal rule.
(§9) The only difference lay in the administration of the compounds, which was via the oral route, in a suspension consisting of Tween 80 0.1% v/v and sodium carboxymethyl cellulose (NaCMC) 0.5% w/v in water. The compounds were administered at a dosage of 10 mg/kg, by gastric intubation using a 22-gauge oral feeding needle.

hERG channel = hERG channel (Homo sapiens (Human), UniProt Q12809); assay: Toxicity on the cardiac hERG channel, FluxOR thallium fluorescence assay in HEK293 cells; assay type: cell-based
Excerpt: The hERG potassium channel contributes in the final phase of the action potential, bringing the cell to its resting state. If a drug suppresses the activity of the channel, it can produce a prolongation of the […], known as “long QT syndrome”, resulting in a fatal ventricular arrhythmia.
To characterise the behaviour of the hERG potassium channel in the presence of the compounds of the present invention, use was made of an assay based on a fluorescent probe (FluxOR®, Life Technologies) with high affinity for thallium, an indicator of the activity of the potassium ion channel. When the potassium channels open in response to a stimulus, the influx of thallium from the external environment is detected by the probe. The fluorescent signal is therefore proportional to the number of open potassium channels in the cell. The FluxOR® is added in ester form without fluorescent emission capacity, thus preventing the emission of fluorescence outside the cell. When it enters the cell, the cytosol esterases activate the FluxOR®, so that it is capable of binding the thallium that passes into the cytoplasm through the hERG channel and of emitting fluorescence.
Black plates containing 96 wells treated with poly-D-lysine were seeded with HEK293 cells (deposit number ATCC CRL-1573) modified to stably express the hERG channel. […] After one hour of incubation of the fluorochrome with the cells at ambient temperature, the plates were washed with 50 μL of assay buffer. Subsequently, 20 μL of the compounds to be studied were added at a dilution of 1:200 (2 μL of compound/400 μL of assay buffer), in triplicate, on 12-point curves (1:2 dilutions of the compound in DMSO). […]. After 30 minutes of incubation, the plates were read in a FLIPR TETRA®, which added 5 μL of stimulus buffer (Tl2SO4+K2SO4). […]

PDE4B2 = PDE4B2 (Homo sapiens (Human), UniProt Q07343); assay: PDE4B2 inhibition; assay type: biochemical
PDE4D3 = PDE4D3 (Homo sapiens (Human), UniProt Q08499); assay: PDE4D3 inhibition; assay type: biochemical
[2] = Parallel artificial membrane permeability assay (PAMPA) for CNS / blood-brain barrier permeability; conditions: pH 7.4
Protocol: as §1, §2, §3, §4, §5

in vivo = conditions: C57BL/6, mouse
Protocol: as §6, §7, §8, §9

[3] = mice, intraperitoneal administration, 10 mg/kg
[4] = mice, oral administration, 10 mg/kg
[5] = mice, oral administration, 10 mg/kg, Tmax 0.5 h

Chain of PDE4B2 (Q07343 other isoform, or with tags, fused parts or gaps, species assumed): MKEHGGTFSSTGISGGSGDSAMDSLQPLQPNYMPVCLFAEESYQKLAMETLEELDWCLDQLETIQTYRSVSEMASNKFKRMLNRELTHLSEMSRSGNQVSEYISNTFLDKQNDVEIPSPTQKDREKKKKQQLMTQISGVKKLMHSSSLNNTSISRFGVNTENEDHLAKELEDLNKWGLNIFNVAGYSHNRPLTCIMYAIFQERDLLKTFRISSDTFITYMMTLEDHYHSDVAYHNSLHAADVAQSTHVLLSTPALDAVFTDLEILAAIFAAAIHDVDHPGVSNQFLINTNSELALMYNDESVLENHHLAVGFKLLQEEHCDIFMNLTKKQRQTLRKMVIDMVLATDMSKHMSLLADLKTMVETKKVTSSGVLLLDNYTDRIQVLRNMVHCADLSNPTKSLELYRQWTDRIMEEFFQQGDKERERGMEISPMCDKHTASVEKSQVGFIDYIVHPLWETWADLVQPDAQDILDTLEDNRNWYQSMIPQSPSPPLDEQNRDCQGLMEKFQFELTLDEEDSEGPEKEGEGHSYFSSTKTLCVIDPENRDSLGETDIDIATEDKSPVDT
Chain of PDE7A1 (Q13946 whole entry, species assumed): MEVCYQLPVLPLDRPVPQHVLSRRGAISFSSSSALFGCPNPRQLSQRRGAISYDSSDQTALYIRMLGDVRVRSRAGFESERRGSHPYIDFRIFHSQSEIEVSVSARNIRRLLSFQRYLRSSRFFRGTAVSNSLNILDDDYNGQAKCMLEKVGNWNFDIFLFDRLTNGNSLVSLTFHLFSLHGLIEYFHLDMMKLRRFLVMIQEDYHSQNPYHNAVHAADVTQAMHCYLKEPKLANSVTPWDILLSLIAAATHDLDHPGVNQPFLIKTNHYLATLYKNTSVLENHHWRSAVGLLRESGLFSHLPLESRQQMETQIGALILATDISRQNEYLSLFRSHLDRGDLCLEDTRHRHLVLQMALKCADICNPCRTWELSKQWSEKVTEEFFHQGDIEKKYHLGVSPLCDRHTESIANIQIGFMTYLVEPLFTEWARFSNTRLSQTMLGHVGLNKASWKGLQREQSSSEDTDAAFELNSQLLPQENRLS
Chain of PDE4D3 (Q08499 other isoform, or with tags, fused parts or gaps): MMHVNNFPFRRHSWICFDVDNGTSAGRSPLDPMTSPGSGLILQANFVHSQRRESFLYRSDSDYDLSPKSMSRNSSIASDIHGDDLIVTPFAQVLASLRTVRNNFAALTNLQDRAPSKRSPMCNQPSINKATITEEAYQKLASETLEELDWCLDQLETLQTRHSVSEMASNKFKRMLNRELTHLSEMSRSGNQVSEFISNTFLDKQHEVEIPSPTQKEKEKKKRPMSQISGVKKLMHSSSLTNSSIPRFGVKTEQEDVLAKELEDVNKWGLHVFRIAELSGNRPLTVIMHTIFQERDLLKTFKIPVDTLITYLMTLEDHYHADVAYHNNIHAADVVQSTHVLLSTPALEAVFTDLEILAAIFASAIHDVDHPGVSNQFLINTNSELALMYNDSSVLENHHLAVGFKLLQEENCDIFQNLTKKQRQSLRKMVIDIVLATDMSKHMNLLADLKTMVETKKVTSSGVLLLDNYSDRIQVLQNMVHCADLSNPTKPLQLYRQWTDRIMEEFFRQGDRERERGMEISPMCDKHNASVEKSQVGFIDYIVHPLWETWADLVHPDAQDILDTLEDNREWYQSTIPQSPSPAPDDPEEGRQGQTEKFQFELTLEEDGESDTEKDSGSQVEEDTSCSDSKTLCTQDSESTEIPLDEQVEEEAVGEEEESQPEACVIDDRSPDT
Chain of hERG channel (Q12809 whole entry): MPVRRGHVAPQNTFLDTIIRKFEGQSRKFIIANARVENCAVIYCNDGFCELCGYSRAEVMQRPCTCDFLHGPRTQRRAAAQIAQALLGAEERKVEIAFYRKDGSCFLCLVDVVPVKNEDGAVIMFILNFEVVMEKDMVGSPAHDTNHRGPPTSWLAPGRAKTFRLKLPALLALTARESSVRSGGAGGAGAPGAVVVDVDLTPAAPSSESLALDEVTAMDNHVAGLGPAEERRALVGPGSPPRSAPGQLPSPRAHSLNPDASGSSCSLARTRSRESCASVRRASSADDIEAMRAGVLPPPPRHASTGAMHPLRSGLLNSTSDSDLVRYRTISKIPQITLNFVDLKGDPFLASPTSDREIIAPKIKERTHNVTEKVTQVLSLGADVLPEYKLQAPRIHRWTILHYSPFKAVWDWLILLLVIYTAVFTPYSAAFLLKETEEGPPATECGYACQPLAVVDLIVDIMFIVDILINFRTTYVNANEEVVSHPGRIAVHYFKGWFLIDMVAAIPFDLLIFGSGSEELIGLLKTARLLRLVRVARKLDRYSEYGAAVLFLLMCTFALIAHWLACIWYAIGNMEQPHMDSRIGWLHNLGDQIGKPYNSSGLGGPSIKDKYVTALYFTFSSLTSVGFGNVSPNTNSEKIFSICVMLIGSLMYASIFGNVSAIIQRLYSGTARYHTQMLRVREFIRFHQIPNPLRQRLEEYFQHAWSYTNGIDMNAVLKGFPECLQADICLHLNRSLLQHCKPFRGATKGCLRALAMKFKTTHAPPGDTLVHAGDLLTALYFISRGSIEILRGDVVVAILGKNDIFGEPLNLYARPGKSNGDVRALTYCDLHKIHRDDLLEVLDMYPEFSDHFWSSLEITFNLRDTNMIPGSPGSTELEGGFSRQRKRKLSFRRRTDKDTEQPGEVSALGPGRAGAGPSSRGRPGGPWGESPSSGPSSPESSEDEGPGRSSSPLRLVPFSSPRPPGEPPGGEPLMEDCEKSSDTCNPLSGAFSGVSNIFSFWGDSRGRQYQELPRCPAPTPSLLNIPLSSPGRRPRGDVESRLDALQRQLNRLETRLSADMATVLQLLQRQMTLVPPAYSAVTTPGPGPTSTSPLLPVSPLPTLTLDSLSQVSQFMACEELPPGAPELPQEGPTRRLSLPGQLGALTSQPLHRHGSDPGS

Structure (SMILES): Cc1ccccc1-n1c(SCc2cccnc2)nc2ccccc2c1=O [Compound 26, 3-(2-Methylphenyl)-2-(3-pyridylmethylthio)-4-oxo-3,4-dihydroquinazoline]
- IC50 (PDE7A1; read-out: PDE7A IC50): 120 nM
- Papp at 2.5 h (in vitro): 20.1 ± 0.1 ×10⁻⁶ cm/s

Structure (SMILES): CC(C)(C)CSc1nc2c(Cl)cccc2c(=O)n1-c1ccccc1 [Compound 11, 8-Chloro-3-phenyl-2-neopentylthio-4-oxo-3,4-dihydroquinazoline]
- IC50 (PDE7A1; read-out: PDE7A IC50): 1200 nM

Structure (SMILES): CCSc1nc2ccccc2c(=O)n1-c1c(F)cccc1F [Compound 17, 2-Ethylthio-3-(2,6-difluorophenyl)-4-oxo-3,4-dihydroquinazoline]
- IC50 (PDE7A1; read-out: PDE7A IC50): 6990 nM
- Papp at 2.5 h (in vitro): 4.8 ± 0.6 ×10⁻⁶ cm/s

Structure (SMILES): S=c1[nH]c2ccccc2c(=S)n1-c1ccccc1 [TC3.6, 3-Phenyl-2,4-dithioxo-1,2,3,4-tetrahydroquinazoline]
- Kp ([1]; ip, 10 mg/kg): 0.51
- Kp ([1]; other: intraperitoneal and oral, 10 mg/kg): < 1
- Kp ([1]; po, 10 mg/kg): 0.43
- Tmax ([1]; ip, 10 mg/kg): 15 min
- Tmax ([1]; po, 10 mg/kg): 30 min
- Cmax ([1]; ip, 10 mg/kg): 6790 nM
- Cmax ([1]; po, 10 mg/kg): 860 nM
- Cmax/PDE7 IC50 ratio, brain [1, 3]: 3.33
- Cmax/PDE7 IC50 ratio, plasma [1, 3]: 6.53
- levels in plasma and brain 2 hours after administration (elimination) ([1]; mice, 10 mg/kg): almost eliminated
- Cmax/PDE7 IC50 ratio, brain [1, 4]: 0.36
- Cmax/PDE7 IC50 ratio, plasma [1, 4]: 0.83
- Brain Cmax [1, 5]: 370 nM
- Brain Cmax ([1]; mouse, in vivo): 3460 nM
- IC50 (hERG channel; stimulated the opening of the potassium channel, HEK293 hERG, FluxOR): 5190 nM

Structure (SMILES): Cc1cccc2c(=O)n(-c3c(F)cccc3F)c(SCC(C)(C)C)nc12 [Compound 6, 3-(2,6-Difluorophenyl)-8-methyl-2-neopentylthio-4-oxo-3,4-dihydroquinazoline]
- IC50 (PDE7A1; read-out: PDE7A IC50): 8670 nM

Structure (SMILES): O=c1c2ccccc2nc(SCc2cccnc2)n1-c1ccccc1 [Compound 24, 3-Phenyl-2-(3-pyridylmethylthio)-4-oxo-3,4-dihydroquinazoline]
- IC50 (PDE7A1; read-out: PDE7A IC50): 700 nM
- Papp at 2.5 h (in vitro): 18.6 ± 1.7 ×10⁻⁶ cm/s

Structure (SMILES): O=c1c2ccccc2nc(SCC2CCCCC2)n1-c1ccccc1 [Compound 1, 2-Cyclohexylmethylthio-3-phenyl-4-oxo-3,4-dihydroquinazoline]
- inhibition at 10 µM (PDE4B2): 18%
- IC50 (PDE7A1; read-out: PDE7A IC50): 200 nM
- inhibition at 10 µM (PDE4D3): 49%

Structure (SMILES): CCSc1nc2ccccc2c(=O)n1-c1ccccc1 [Compound 16, 2-Ethylthio-3-phenyl-4-oxo-3,4-dihydroquinazoline]
- IC50 (PDE7A1; read-out: PDE7A IC50): 6900 nM
- Papp at 2.5 h (in vitro): 7.9 ± 1.2 ×10⁻⁶ cm/s

Structure (SMILES): Cc1ccccc1-n1c(SCC(C)(C)C)nc2ccccc2c1=O [Compound 13, 3-(2-Methylphenyl)-2-neopentylthio-4-oxo-3,4-dihydroquinazoline]
- IC50 (PDE7A1; read-out: PDE7A IC50): 1850 nM
- Papp at 2.5 h (in vitro): 3.9 ± 0.7 ×10⁻⁶ cm/s

Structure (SMILES): O=c1c2ccccc2nc(SCc2ccccc2)n1-c1ccccc1 [Compound 21, 2-Benzylthio-3-phenyl-4-oxo-3,4-dihydroquinazoline]
- inhibition at 10 µM (PDE4B2): 28%
- IC50 (PDE7A1; read-out: PDE7A IC50): 600 nM
- inhibition at 10 µM (PDE4D3): 38%

Structure (SMILES): O=c1c2ccccc2nc(SCc2ccc3ccccc3c2)n1-c1ccccc1 [Compound 28, 3-Phenyl-2-(2-naphthylmethylthio)-4-oxo-3,4-dihydroquinazoline]
- IC50 (PDE7A1; read-out: PDE7A IC50): 90 nM

Structure (SMILES): CN1C(C(=O)Nc2ccccn2)=C(O)c2ccccc2S1(=O)=O [Piroxicam, piroxicam]
- Papp at 2.5 h [2]: 0.2 ± 0.1 ×10⁻⁶ cm/s

Structure (SMILES): O=c1c2ccccc2nc(SCc2ccncc2)n1-c1ccccc1 [Compound 27, 3-Phenyl-2-(4-pyridylmethylthio)-4-oxo-3,4-dihydroquinazoline]
- IC50 (PDE7A1; read-out: PDE7A IC50): 2600 nM
- Papp at 2.5 h (in vitro): 15.9 ± 1.3 ×10⁻⁶ cm/s

Structure (SMILES): O=c1c2ccccc2nc(SCc2ccccn2)n1-c1ccccc1 [Compound 23, 3-Phenyl-2-(2-pyridylmethylthio)-4-oxo-3,4-dihydroquinazoline]
- IC50 (PDE7A1; read-out: PDE7A IC50): 800 nM
- Papp at 2.5 h (in vitro): 12.4 ± 2.2 ×10⁻⁶ cm/s

Structure (SMILES): O=c1c2ccccc2nc(SCC2CC2)n1-c1ccccc1Br [Compound 14, 3-(2-Bromophenyl)-2-cyclopropylmethylthio-4-oxo-3,4-dihydroquinazoline]
- IC50 (PDE7A1; read-out: PDE7A IC50): 9440 nM
- Papp at 2.5 h (in vitro): 1.9 ± 0.3 ×10⁻⁶ cm/s

Structure (SMILES): O=c1c2ccccc2nc(SCC2CCCCC2)n1-c1ccccc1Br [Compound 2, 3-(2-Bromophenyl)-2-cyclohexylmethylthio-4-oxo-3,4-dihydroquinazoline]
- IC50 (PDE7A1; read-out: PDE7A IC50): 2110 nM

Structure (SMILES): O=c1[nH]c(SCc2cccnc2)nc2c(Cl)cccc12 [Compound 25, 8-Chloro-2-(3-pyridylmethylthio)-4-oxo-3,4-dihydroquinazoline]
- IC50 (PDE7A1; read-out: PDE7A IC50): 540 nM
- Papp at 2.5 h (in vitro): 12.1 ± 3.9 ×10⁻⁶ cm/s

Structure (SMILES): CC(C)(C)CSc1nc2ccccc2c(=O)n1-c1ccccc1 [Compound 5, 3-Phenyl-2-neopentylthio-4-oxo-3,4-dihydroquinazoline]
- inhibition at 10 µM (PDE4B2): 29%
- Kp (in vivo): > 1
- Cmax (in vivo; ip, 10 mg/kg): 2310 nM
- Kp (in vivo; ip, 10 mg/kg): 2.45
- Tmax (in vivo; ip, 10 mg/kg): 15 min
- Cmax (in vivo; po, 10 mg/kg): 1380 nM
- Kp (in vivo; po, 10 mg/kg): 1.19
- Tmax (in vivo; po, 10 mg/kg): 30 min
- IC50 (PDE7A1; Table 3, read-out: PDE inhibitory activity PDE7A CI50): 100 nM
- IC50 (PDE7A1; read-out: PDE7A IC50): 100 nM
- Cmax/PDE7 IC50 ratio, brain [1, 3]: 56.5
- Cmax/PDE7 IC50 ratio, plasma [1, 3]: 23.1
- Brain Cmax ([1]; mice, intraperitoneal administration, 10 mg/kg, Tmax 0.25 h): 5650 nM
- levels in plasma and brain 2 hours after administration (elimination) ([1]; mice, 10 mg/kg): still considerable levels
- Cmax/PDE7 IC50 ratio, brain [1, 4]: 16.4
- Cmax/PDE7 IC50 ratio, plasma [1, 4]: 13.8
- Brain Cmax [1, 5]: 1640 nM
- inhibition at 10 µM (PDE4D3): 37%
- IC50 (hERG channel): > 30000 nM
- cardiotoxic potential (hERG channel; deduced from hERG data): did not have any cardiotoxic potential

Structure (SMILES): CCSc1nc2c(Cl)cccc2c(=O)n1-c1c(F)cccc1F [Compound 18, 8-Chloro-2-ethylthio-3-(2,6-difluorophenyl)-4-oxo-3,4-dihydroquinazoline]
- IC50 (PDE7A1; read-out: PDE7A IC50): 2440 nM

Structure (SMILES): Cc1cccc2c(=O)n(-c3c(F)cccc3F)c(SCC3CC3)nc12 [Compound 15, 2-Cyclopropylmethylthio-3-(2,6-difluorophenyl)-8-methyl-4-oxo-3,4-dihydroquinazoline]
- IC50 (PDE7A1; read-out: PDE7A IC50): 4560 nM
- Papp at 2.5 h (in vitro): 1.3 ± 0.9 ×10⁻⁶ cm/s

— US9796687B2, “S-substituted quinazolines and their therapeutic applications for the treatment of diseases mediated by PDE7” (Consejo Superior De Investigaciones Cientificas (CSIC), priority 2016, dated 2017)
